Results on 20 compounds are retold here after ChEMBL document CHEMBL1139174, “Modeling of human ghrelin receptor (hGHS-R1a) in its close state and validation by molecular docking” (Bioorg Med Chem, 2007).

Square brackets hold non-standard residues; d marks the D form. Peptide text beside a SMILES is read from it. d(hPhe) = N[C@H](CCc1ccccc1)C(=O)O; Aib = CC(C)(N)C(=O)O

In one experiment the target is Growth hormone secretagogue receptor type 1 (Homo sapiens, UniProt Q92847). Briefly: Agonist activity at human GHS-R1. The experiment is classed as functional.
Chain of Growth hormone secretagogue receptor type 1 (Q92847 whole entry): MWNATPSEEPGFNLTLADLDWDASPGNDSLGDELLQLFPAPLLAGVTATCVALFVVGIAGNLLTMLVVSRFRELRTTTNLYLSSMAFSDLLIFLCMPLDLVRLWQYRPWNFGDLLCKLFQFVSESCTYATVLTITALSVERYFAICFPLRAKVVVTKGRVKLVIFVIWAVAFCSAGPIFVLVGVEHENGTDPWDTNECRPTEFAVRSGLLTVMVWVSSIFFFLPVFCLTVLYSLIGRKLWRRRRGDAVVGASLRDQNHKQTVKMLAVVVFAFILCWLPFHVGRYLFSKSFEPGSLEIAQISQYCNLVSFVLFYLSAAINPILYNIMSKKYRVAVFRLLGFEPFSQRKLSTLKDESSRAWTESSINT
Conditions: not given
On to `CC(C)(N)C(=O)N[C@H](CCCc1ccccc1)C(=O)N1CCC2(CC1)C[S+]([O-])c1ccccc12` (some centres not stated), for which the “Log EC50” value was -8.6.

Staying with this experiment, now noted: read-out: EC50.
On to `NC(=O)[C@@H](NC(=O)[C@@H](Cc1ccc2ccccc2c1)NC(=O)[C@@H](Cc1ccc2ccccc2c1)NC(=O)C1CCNCC1)c1ccccc1`, for which the EC50 is 0.28 nM. `CC(C)(N)C(=O)N[C@H](CCCc1ccccc1)C(=O)N1CCN(c2ccccc2NS(=O)(=O)CC(=O)O)CC1`: the EC50 was determined as 2.3 nM. In the case of `NCC(O)CNC(=O)[C@@H](Cc1cccc2ccccc12)NC(=O)CCCN1C(=O)CCSc2ccccc21` (some centres not stated), the EC50 amounted to 1 nM. For the compound `CCOC(=O)[C@]1(Cc2ccccc2)CCCN(C(=O)[C@@H](Cc2c[nH]c3ccccc23)NC(=O)C(C)(C)N)C1`, the EC50 stood at 1.6 nM. Still for that read-out and setting: the result for `O=C(N[C@H](Cc1ccc2ccccc2c1)C(=O)N[C@@H](CO)Cc1ccc2ccccc2c1)C1CCNCC1` reads 1.8 nM; that for `O=C(N[C@H](Cc1ccc2ccccc2c1)C(=O)N[C@@H](CO)Cc1c[nH]c2ccccc12)C1CCNCC1`, 10 nM; that for `Cc1ccccc1N1CCN(C(=O)[C@@H](CCCc2ccccc2)NC(=O)C(C)(C)N)CC1`, 100 nM.

Regarding `CCN(CC)CCN1C(=O)[C@@](O)(c2ccc3ccccc3c2)c2c1cc(C#CCCC(=O)N(C)C)cc2C(F)(F)F`, the EC50 is 30 nM.

With `NCCNC(=O)[C@@H](Cc1cccc2ccccc12)NC(=O)CCN1C(=O)CCS(=O)(=O)c2ccccc21`, the EC50 was 10 nM. The same measure, in the same setting: the figure for `NCCCCNC(=O)[C@@H](Cc1ccc2ccccc2c1)NC(=O)[C@@H](Cc1ccc2ccccc2c1)NC(=O)C1CCNCC1` is 17 nM; for `COC(=O)CS(=O)(=O)Nc1ccccc1N1CCN(C(=O)[C@@H](CCCc2ccccc2)NC(=O)C(C)(C)N)CC1` it is 4.5 nM. For `CCN(CC)CCN1C(=O)[C@@](O)(c2ccc3ccccc3c2)c2c(Br)cccc21`, the concentration giving a half-maximal response (EC50) was 77 nM. In the case of `CCOC(=O)[C@@H](CCc1ccccc1)NC(=O)[C@@H](Cc1c[nH]c2ccccc12)NC(=O)C(C)(C)N` (H-[Aib]-[dW]-[d(hPhe)]-OEt), the EC50 was 3 nM. On the same count and under the same terms, the figure for `CC(C)(N)C(=O)N[C@H](CCCc1ccccc1)C(=O)N1CCN(c2ccccc2NS(C)(=O)=O)CC1` is 6.3 nM; for `CCNC(=O)[C@]1(Cc2ccccc2)CCCN(C(=O)[C@@H](Cc2c[nH]c3ccccc23)NC(=O)C(C)(C)N)C1` it is 0.8 nM; for `CCN(CC)CCN1C(=O)[C@@](O)(c2ccc3ccccc3c2)c2c1cc(C#CCCC(=O)N1CCOCC1)cc2C(F)(F)F` it is 30 nM. On the same count and under the same terms, the result for `CNC(C)(C)C/C=C/C(=O)N(C)[C@H](Cc1ccc2ccccc2c1)C(=O)N(C)CCc1ccccc1` reads 3 nM; that for `CC(C)S(=O)(=O)Nc1ccccc1N1CCN(C(=O)[C@@H](CCCc2ccccc2)NC(=O)C(C)(C)N)CC1`, 2.8 nM; that for `CCN(CC)CCN1C(=O)[C@@](O)(c2ccc3ccccc3c2)c2c1cc(C(N)=O)cc2C(F)(F)F`, 18 nM.

The experiment is the same for the next values; noted with them: read-out: Log EC50 (converted).
On to `NCC(O)CNC(=O)[C@@H](Cc1cccc2ccccc12)NC(=O)CCCN1C(=O)CCSc2ccccc21` (some centres not stated), for which the EC50 is 2 nM. Regarding `Cc1ccccc1N1CCN(C(=O)[C@@H](CCCc2ccccc2)NC(=O)C(C)(C)N)CC1`, the EC50 is 14.1 nM.
